Source: ChEMBL document CHEMBL1201862, “PubChem BioAssay data set” (2004)
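Values below derive from 48-hour exposures of cells grown in 96-well plates, with endpoints linearly interpolated between the two concentrations bracketing the appropriate inhibition level. At the GI50, growth is halved.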 Active and inactive are the calls of the source. Cut-off read from the data, not from the text of the source: active = GI50 up to about 1.1 µM and inactive = higher.

Columns and labels:
Assay in all cases: NCI tumour cell line growth inhibition, 48 h
[1] = test system: 786-0
[2] = test system: A498
[3] = test system: A549
[4] = test system: ACHN
[5] = test system: BT-549
[6] = test system: CAKI-1
[7] = test system: CCRF-CEM
[8] = test system: COLO 205
[9] = test system: DU-145
[10] = test system: EKVX
[11] = test system: HCT-116
[12] = test system: HCT-15
[13] = test system: HL-60
[14] = test system: HOP-62
[15] = test system: HOP-92
[16] = test system: HT-29
[17] = test system: Hs-578T
[18] = test system: IGROV-1
[19] = test system: K562
[20] = test system: KM12
[21] = test system: LOX IMVI
[22] = test system: M14
[23] = test system: MCF7
[24] = test system: MDA-MB-231
[25] = test system: MDA-MB-435
[26] = test system: MDA-N
[27] = test system: MOLT-4
[28] = test system: Malme-3M
[29] = test system: NCI-H226
[30] = test system: NCI-H23
[31] = test system: NCI-H460
[32] = test system: NCI/ADR-RES
[33] = test system: OVCAR-3
[34] = test system: OVCAR-4
[35] = test system: OVCAR-5
[36] = test system: OVCAR-8
[37] = test system: PC-3
[38] = test system: RPMI-8226
[39] = test system: RXF 393
[40] = test system: SF-268
[41] = test system: SF-295
[42] = test system: SF-539
[43] = test system: SK-MEL-28
[44] = test system: SK-MEL-5
[45] = test system: SK-OV-3
[46] = test system: SN12C
[47] = test system: SNB-19
[48] = test system: SNB-75
[49] = test system: SR
[50] = test system: SW-620
[51] = test system: T47D
[52] = test system: TK-10
[53] = test system: U-251
[54] = test system: UACC-257
[55] = test system: UACC-62
[56] = test system: UO-31
[57] = test system: NCI-H522
[58] = test system: SK-MEL-2

## Cc1nc2[nH]ccn2c(=O)c1CCO
[1]
  GI50: > 10 µM (inactive)
[2]
  GI50: > 10 µM (inactive)
[3]
  GI50: > 10 µM (inactive)
[4]
  GI50: > 10 µM (inactive)
[5]
  GI50: > 10 µM (inactive)
[6]
  GI50: > 10 µM (inactive)
[7]
  GI50: > 10 µM (inactive)
[8]
  GI50: > 10 µM (inactive)
[9]
  GI50: > 10 µM (inactive)
[10]
  GI50: > 10 µM (inactive)
[11]
  GI50: > 10 µM (inactive)
[12]
  GI50: > 10 µM
[13]
  GI50: > 10 µM (inactive)
[14]
  GI50: > 10 µM (inactive)
[15]
  GI50: > 10 µM (inactive)
[16]
  GI50: > 10 µM (inactive)
[17]
  GI50: > 10 µM (inactive)
[18]
  GI50: > 10 µM (inactive)
[19]
  GI50: > 10 µM (inactive)
[20]
  GI50: > 10 µM (inactive)
[21]
  GI50: > 10 µM (inactive)
[22]
  GI50: > 10 µM (inactive)
[23]
  GI50: > 10 µM (inactive)
[24]
  GI50: > 10 µM (inactive)
[25]
  GI50: > 10 µM (inactive)
[26]
  GI50: > 10 µM (inactive)
[27]
  GI50: > 10 µM (inactive)
[28]
  GI50: > 10 µM (inactive)
[29]
  GI50: > 10 µM (inactive)
[30]
  GI50: > 10 µM (inactive)
[31]
  GI50: > 10 µM (inactive)
[32]
  GI50: > 10 µM (inactive)
[33]
  GI50: > 10 µM (inactive)
[34]
  GI50: > 10 µM (inactive)
[35]
  GI50: > 10 µM (inactive)
[36]
  GI50: > 10 µM (inactive)
[37]
  GI50: > 10 µM (inactive)
[38]
  GI50: > 10 µM (inactive)
[39]
  GI50: > 10 µM (inactive)
[40]
  GI50: > 10 µM (inactive)
[41]
  GI50: > 10 µM (inactive)
[42]
  GI50: > 10 µM (inactive)
[43]
  GI50: > 10 µM (inactive)
[44]
  GI50: > 10 µM (inactive)
[45]
  GI50: > 10 µM (inactive)
[46]
  GI50: > 10 µM (inactive)
[47]
  GI50: > 10 µM (inactive)
[48]
  GI50: > 10 µM (inactive)
[49]
  GI50: > 10 µM (inactive)
[50]
  GI50: > 10 µM (inactive)
[51]
  GI50: > 10 µM (inactive)
[52]
  GI50: > 10 µM (inactive)
[53]
  GI50: > 10 µM (inactive)
[54]
  GI50: > 10 µM (inactive)
[55]
  GI50: > 10 µM (inactive)
[56]
  GI50: > 10 µM (inactive)

## CC1(C)OCC(C2OC(C)(C)OC2[C@H]2O[C@@]3(O)[C@H]4[C@H](C=CC[C@@H]42)[C@@H](OCc2ccccc2)[C@H](OCc2ccccc2)[C@H]3OCc2ccccc2)O1 (stereo partly specified)
[1]
  GI50: 35 µM (inactive)
[2]
  GI50: > 100 µM (inactive)
[3]
  GI50: 24.8 µM (inactive)
[4]
  GI50: > 100 µM (inactive)
[5]
  GI50: 72.3 µM (inactive)
[6]
  GI50: 79.1 µM (inactive)
[7]
  GI50: 8.63 µM (inactive)
[8]
  GI50: > 100 µM (inactive)
[9]
  GI50: 61 µM (inactive)
[10]
  GI50: 33.7 µM (inactive)
[11]
  GI50: 16.1 µM (inactive)
[12]
  GI50: 21.9 µM
[13]
  GI50: 14.4 µM (inactive)
[14]
  GI50: > 100 µM (inactive)
[15]
  GI50: 44.2 µM (inactive)
[16]
  GI50: 17.9 µM (inactive)
[17]
  GI50: > 100 µM (inactive)
[18]
  GI50: 71 µM (inactive)
[19]
  GI50: 23.9 µM (inactive)
[20]
  GI50: 47.4 µM (inactive)
[21]
  GI50: 22.6 µM (inactive)
[22]
  GI50: 59.3 µM (inactive)
[23]
  GI50: 15.2 µM (inactive)
[24]
  GI50: 94.8 µM (inactive)
[25]
  GI50: 31.7 µM (inactive)
[26]
  GI50: 17.9 µM (inactive)
[27]
  GI50: 12.5 µM (inactive)
[28]
  GI50: > 100 µM (inactive)
[29]
  GI50: 59.3 µM (inactive)
[30]
  GI50: 28.4 µM (inactive)
[31]
  GI50: 17.9 µM (inactive)
[57]
  GI50: 37.1 µM (inactive)
[32]
  GI50: 28.6 µM (inactive)
[33]
  GI50: 52.2 µM (inactive)
[34]
  GI50: 41 µM (inactive)
[35]
  GI50: 54.3 µM (inactive)
[36]
  GI50: 22.7 µM (inactive)
[37]
  GI50: 31 µM (inactive)
[39]
  GI50: 16.5 µM (inactive)
[40]
  GI50: 70 µM (inactive)
[41]
  GI50: > 100 µM (inactive)
[42]
  GI50: 27.2 µM (inactive)
[43]
  GI50: > 100 µM (inactive)
[58]
  GI50: 20.7 µM (inactive)
[44]
  GI50: 43.2 µM (inactive)
[45]
  GI50: > 100 µM (inactive)
[46]
  GI50: 41.2 µM (inactive)
[47]
  GI50: 63.7 µM (inactive)
[48]
  GI50: 27.9 µM (inactive)
[49]
  GI50: 11 µM (inactive)
[50]
  GI50: 27.8 µM (inactive)
[51]
  GI50: 34.2 µM (inactive)
[52]
  GI50: 32.4 µM (inactive)
[53]
  GI50: 53.6 µM (inactive)
[54]
  GI50: 18.8 µM (inactive)
[55]
  GI50: 19.3 µM (inactive)
[56]
  GI50: 31 µM (inactive)

## Cc1cn(C2CC(O)C(COC(N)=O)O2)c(=O)[nH]c1=O (stereo unspecified)
[1]
  GI50: > 100 µM (inactive)
[2]
  GI50: > 100 µM (inactive)
[3]
  GI50: > 100 µM (inactive)
[4]
  GI50: > 100 µM (inactive)
[5]
  GI50: > 100 µM (inactive)
[6]
  GI50: > 100 µM (inactive)
[7]
  GI50: > 100 µM (inactive)
[8]
  GI50: > 100 µM (inactive)
[9]
  GI50: > 100 µM (inactive)
[10]
  GI50: > 100 µM (inactive)
[11]
  GI50: > 100 µM (inactive)
[12]
  GI50: > 100 µM
[13]
  GI50: > 100 µM (inactive)
[14]
  GI50: > 100 µM (inactive)
[15]
  GI50: > 100 µM (inactive)
[16]
  GI50: > 100 µM (inactive)
[17]
  GI50: > 100 µM (inactive)
[18]
  GI50: > 100 µM (inactive)
[19]
  GI50: > 100 µM (inactive)
[20]
  GI50: > 100 µM (inactive)
[21]
  GI50: > 100 µM (inactive)
[22]
  GI50: > 100 µM (inactive)
[23]
  GI50: > 100 µM (inactive)
[24]
  GI50: > 100 µM (inactive)
[25]
  GI50: > 100 µM (inactive)
[26]
  GI50: > 100 µM (inactive)
[27]
  GI50: > 100 µM (inactive)
[28]
  GI50: > 100 µM (inactive)
[29]
  GI50: > 100 µM (inactive)
[30]
  GI50: > 100 µM (inactive)
[31]
  GI50: > 100 µM (inactive)
[57]
  GI50: > 100 µM (inactive)
[32]
  GI50: > 100 µM (inactive)
[33]
  GI50: > 100 µM (inactive)
[34]
  GI50: > 100 µM (inactive)
[35]
  GI50: > 100 µM (inactive)
[36]
  GI50: > 100 µM (inactive)
[37]
  GI50: > 100 µM (inactive)
[38]
  GI50: > 100 µM (inactive)
[39]
  GI50: > 100 µM (inactive)
[40]
  GI50: > 100 µM (inactive)
[41]
  GI50: > 100 µM (inactive)
[42]
  GI50: > 100 µM (inactive)
[43]
  GI50: > 100 µM (inactive)
[58]
  GI50: > 100 µM (inactive)
[44]
  GI50: > 100 µM (inactive)
[45]
  GI50: > 100 µM (inactive)
[46]
  GI50: > 100 µM (inactive)
[47]
  GI50: > 100 µM (inactive)
[48]
  GI50: 71.1 µM (inactive)
[49]
  GI50: > 100 µM (inactive)
[50]
  GI50: > 100 µM (inactive)
[51]
  GI50: > 100 µM (inactive)
[52]
  GI50: > 100 µM (inactive)
[53]
  GI50: > 100 µM (inactive)
[54]
  GI50: > 100 µM (inactive)
[55]
  GI50: > 100 µM (inactive)
[56]
  GI50: > 100 µM (inactive)
